Experimental data reported in PubChem BioAssay (NCI).
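Briefly, cells in 96-well plates were exposed to five compound concentrations for 48 h, and endpoints were estimated by linear interpolation. TGI: total growth inhibition.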

Legend:
Assay in all cases: growth of human tumour cells (NCI), 48 h
CCRF-CEM leukemia = test system: CCRF-CEM leukemia
SF-539 CNS = test system: SF-539 CNS
SNB-19 CNS = test system: SNB-19 CNS
HOP-92 NSCLC = test system: HOP-92 NSCLC
HL-60(TB) leukemia = test system: HL-60(TB) leukemia
CAKI-1 renal = test system: CAKI-1 renal
M14 melanoma = test system: M14 melanoma
HCC-2998 colon = test system: HCC-2998 colon
COLO 205 colon = test system: COLO 205 colon
ACHN renal = test system: ACHN renal
UACC-62 melanoma = test system: UACC-62 melanoma
NCI-H226 lung = test system: NCI-H226 lung
SF-295 CNS = test system: SF-295 CNS
RPMI-8226 leukemia = test system: RPMI-8226 leukemia
LOX IMVI melanoma = test system: LOX IMVI melanoma
A549 NSCLC = test system: A549 NSCLC
A498 renal = test system: A498 renal
NCI-H522 lung = test system: NCI-H522 lung

Row | Structure (SMILES) | TGI (CCRF-CEM leukemia) [µM] | TGI (SF-539 CNS) [µM] | TGI (SNB-19 CNS) [µM] | TGI (HOP-92 NSCLC) [µM] | TGI (HL-60(TB) leukemia) [µM] | TGI (CAKI-1 renal) [µM] | TGI (M14 melanoma) [µM] | TGI (HCC-2998 colon) [µM] | TGI (COLO 205 colon) [µM] | TGI (ACHN renal) [µM] | TGI (UACC-62 melanoma) [µM] | TGI (NCI-H226 lung) [µM] | TGI (SF-295 CNS) [µM] | TGI (RPMI-8226 leukemia) [µM] | TGI (LOX IMVI melanoma) [µM] | TGI (A549 NSCLC) [µM] | TGI (A498 renal) [µM] | TGI (NCI-H522 lung) [µM]
1 | CCN1C(=O)c2ccccc2C1(O)c1ccc(Cl)cc1 (stereo not drawn) | > 100 | > 100 | > 100 | > 100 | > 100 | > 100 | > 100 | > 100 | > 100 | > 100 | > 100 | 74.3 | 63.2 | > 100 | > 100 | > 100 | > 100 | –
2 | NNc1ccccc1Cl | > 100 | > 100 | > 100 | > 100 | > 100 | > 100 | > 100 | > 100 | > 100 | > 100 | > 100 | > 100 | > 100 | > 100 | > 100 | > 100 | > 100 | > 100
3 | CN(C)c1nc(=NCc2cccs2)ss1 | 1.83 | > 10 | > 10 | > 10 | 2.16 | > 10 | > 10 | > 10 | > 10 | > 10 | > 10 | > 10 | > 10 | > 10 | > 10 | > 10 | > 10 | 9.57
4 | N#Cc1c(C#N)c(-c2ccco2)n(-c2ccccc2)c1N | > 100 | > 100 | > 100 | > 100 | > 100 | > 100 | > 100 | > 100 | > 100 | > 100 | > 100 | > 100 | > 100 | > 100 | > 100 | > 100 | > 100 | > 100
5 | CC(C)(C)CC(C)(C)N=C(N)NO | > 100 | > 100 | > 100 | > 100 | > 100 | > 100 | > 100 | > 100 | > 100 | 23.4 | > 100 | > 100 | > 100 | > 100 | > 100 | > 100 | 97.6 | > 100
6 | COC(=O)[C@@H]1C2OC(C)(C)OC2CN1C(=O)OCc1ccccc1 (stereo partly drawn) | – | > 100 | > 100 | > 100 | > 100 | > 100 | > 100 | > 100 | > 100 | > 100 | > 100 | > 100 | > 100 | > 100 | > 100 | > 100 | > 100 | > 100
7 | COC(=O)[C@]12CCC(C)(C)C[C@H]1C1=CC[C@@H]3[C@@]4(C)CC[C@H](OC5OC(CO)C(O)C(O)C5OC5OC(CO)C(O)C(O)C5O)C(C)(C)[C@@H]4CC[C@@]3(C)[C@]1(C)CC2 (stereo partly drawn) | 33.8 | – | 29.6 | 13 | 19.4 | 21 | 13.9 | 37.9 | 10.4 | 20.5 | 23.9 | 14.5 | 27.2 | 48.3 | 20.2 | 22.2 | 23.5 | 8.71
